Reference: ChEMBL document CHEMBL4414657, “Psiguadiols A-J, Rearranged Meroterpenoids as Potent PTP1B Inhibitors from Psidium guajava” (J Nat Prod, 2019)

Columns and labels:
[1] = target: T1, Tyrosine-protein phosphatase non-receptor type 1 (Homo sapiens) (UniProt P18031); assay: Inhibition of PTP1B (unknown origin) at 20 ug/ml using pNPP as substrate incubated for 30 mins by ELISA relative to control
T1 sequence (whole entry): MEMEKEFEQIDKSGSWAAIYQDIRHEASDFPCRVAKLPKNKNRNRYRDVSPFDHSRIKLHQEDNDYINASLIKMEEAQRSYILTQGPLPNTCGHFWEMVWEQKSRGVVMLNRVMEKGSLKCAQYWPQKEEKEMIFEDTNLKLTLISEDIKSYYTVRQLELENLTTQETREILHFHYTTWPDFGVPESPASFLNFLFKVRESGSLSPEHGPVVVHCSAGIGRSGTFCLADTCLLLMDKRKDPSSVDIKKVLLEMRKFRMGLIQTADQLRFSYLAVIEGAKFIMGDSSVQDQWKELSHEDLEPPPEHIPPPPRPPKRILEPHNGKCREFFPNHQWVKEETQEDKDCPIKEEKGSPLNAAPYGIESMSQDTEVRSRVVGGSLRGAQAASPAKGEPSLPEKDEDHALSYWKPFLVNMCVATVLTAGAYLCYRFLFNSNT

[2] = target: T2, Tyrosine-protein phosphatase non-receptor type 1 (Homo sapiens, UniProt P18031); assay: Inhibition of PTP1B (unknown origin) using pNPP as substrate incubated for 30 mins by ELISA
T2 sequence (P18031 whole entry): T1 sequence (whole entry)

Compound: C=C1CC[C@@H]2[C@H]([C@@H]3Oc4c(C=O)c(O)c(C=O)c(O)c4[C@H](c4ccccc4)[C@@]3(C)CC[C@H]1O)C2(C)C
- inhibition [1]: > 96%
- IC50 [2]: 22.8 µM

Compound: CC(C)[C@@H]1CC[C@@H](C)[C@]2(O)C[C@@H]3[C@H](c4ccccc4)c4c(O)c(C=O)c(O)c(C=O)c4O[C@]3(C)C=C12
- inhibition [1]: > 96%
- IC50 [2]: 18.9 µM

Compound: CC(C)[C@@H]1CC[C@@H](C)[C@H]2C[C@]34O[C@H]([C@@]21O)[C@@]3(C)Oc1c(C=O)c(O)c(C=O)c(O)c1[C@H]4c1ccccc1
- inhibition [1]: > 96%
- IC50 [2]: 19.1 µM

Compound: C/C1=C/C[C@@H]2[C@H](CC2(C)C)[C@@]2(CC[C@H]1O)C[C@H](c1ccccc1)c1c(O)c(C=O)c(O)c(C=O)c1O2
- inhibition [1]: > 96%
- IC50 [2]: 11.9 µM

Compound: C=C1CC[C@@H]2[C@H](CC2(C)C)[C@@]2(CC[C@H]1O)C[C@H](c1ccccc1)c1c(O)c(C=O)c(O)c(C=O)c1O2
- inhibition [1]: > 96%
- IC50 [2]: 4.7 µM

Compound: CC(C)[C@@H]1CC[C@@H](C)[C@]23C[C@@H]4[C@H](c5ccccc5)c5c(O)c(C=O)c(O)c(C=O)c5O[C@]4(C)[C@@H](O)[C@]12O3
- inhibition [1]: > 96%
- IC50 [2]: 10.7 µM

Compound: CC(C)[C@@H]1CC[C@@H](C)[C@H]2C[C@@]3(O)[C@H](c4ccccc4)c4c(O)c(C=O)c(O)c(C=O)c4O[C@]3(C)C=C12
- inhibition [1]: > 96%
- IC50 [2]: 6.2 µM

Compound: C=C1CC[C@@H]2[C@H]([C@@H]3Oc4c(C=O)c(O)c(C=O)c(O)c4[C@H](c4ccccc4)[C@@]3(C)CC[C@@H]1O)C2(C)C
- inhibition [1]: > 96%
- IC50 [2]: 22.8 µM

Compound: C/C1=C/C[C@@H]2[C@H]([C@@H]3Oc4c(C=O)c(O)c(C=O)c(O)c4[C@H](c4ccccc4)[C@@]3(C)CC[C@@H]1O)C2(C)C
- inhibition [1]: > 96%
- IC50 [2]: 9.2 µM

Compound: C=C1CC[C@@H]2[C@H](CC2(C)C)[C@@]2(CC[C@@H]1O)C[C@H](c1ccccc1)c1c(O)c(C=O)c(O)c(C=O)c1O2
- inhibition [1]: > 96%
- IC50 [2]: 11 µM
